Reference: PubChem BioAssay AID250 (DTP/NCI, 2004)
Values joined by “and” are separate entries in the source; they are usually repeats but may differ in a detail not shown here. Identical values can stand only once. Toxic doses and inconclusive results are not listed.

Tested on: BDF1 mice, L1210 leukemia sc, survival T/C
Assay: NCI In Vivo Anticancer Drug Screen. Data for tumor model L1210 Leukemia (subcutaneous) in B6D2F1 (BDF1) mice
Details: higher = longer survival
Outline: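 Read-out: T/C ratio, i.e. survival or tumor size in treated mice over that in vehicle-treated controls, from mice bearing transplantable tumors.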

**Q.** For `CN(Cc1cnc2nc(N)nc(N)c2n1)c1ccc(C(=O)N[C@@H](CCC(=O)O)C(=O)O)cc1`, which T/C (endpoint: mean survival time, dose: 0.65 mg/kg/injection, schedule: Q01DX009 (sc), vehicle: other) is on record?
**A.** 166 % of control and 168 % of control

**Q.** What about the T/C (endpoint: mean survival time, dose: 1.0 mg/kg/injection, schedule: Q01DX015 (ip), vehicle: other) of the same molecule?
**A.** 158 % of control and 163 % of control and 171 % of control

**Q.** And the T/C (endpoint: mean survival time, dose: 1.08 mg/kg/injection, schedule: Q01DX009 (sc), vehicle: other)?
**A.** 158 % of control

**Q.** And the T/C (endpoint: mean survival time, dose: 1.8 mg/kg/injection, schedule: Q01DX009 (sc), vehicle: other)?
**A.** 171 % of control

**Q.** And the T/C (endpoint: mean survival time, dose: 2.0 mg/kg/injection, schedule: Q01DX009 (ip), vehicle: sodium bicarbonate)?
**A.** 154 % of control and 166 % of control

**Q.** And the T/C (endpoint: mean survival time, dose: 4.0 mg/kg/injection, schedule: Q01DX009 (ip), vehicle: sodium bicarbonate)?
**A.** 88 % of control

**Q.** What about the T/C (endpoint: mean survival time, dose: 20.0 mg/kg/injection, schedule: Q04DX003 (ip), vehicle: sodium bicarbonate) of the same molecule?
**A.** 158 % of control

**Q.** What about the T/C (endpoint: mean survival time, dose: 45.0 mg/kg/injection, schedule: Q04DX004 (ip), vehicle: other) of the same molecule?
**A.** 99 % of control and 101 % of control

**Q.** What about the T/C (endpoint: mean survival time, dose: 60.0 mg/kg/injection, schedule: Q04DX004 (ip), vehicle: other) of the same molecule?
**A.** 90 % of control and 105 % of control and 124 % of control

**Q.** And the T/C (endpoint: mean survival time, dose: 80.0 mg/kg/injection, schedule: Q04DX003 (ip), vehicle: sodium bicarbonate)?
**A.** 91 % of control

**Q.** And the T/C (endpoint: mean survival time, dose: 200.0 mg/kg/injection, schedule: Q01DX001 (ip), vehicle: other)?
**A.** 91 % of control and 111 % of control and 116 % of control

**Q.** And the T/C (endpoint: median survival time, dose: 0.01 mg/kg/injection, schedule: Q## X Z (sc), vehicle: other)?
**A.** 100 % of control

**Q.** And the T/C (endpoint: median survival time, dose: 0.02 mg/kg/injection, schedule: Q## X Z (sc), vehicle: other)?
**A.** 100 % of control

**Q.** And the T/C (endpoint: median survival time, dose: 0.03 mg/kg/injection, schedule: Q## X Z (sc), vehicle: other)?
**A.** 105 % of control

**Q.** What about the T/C (endpoint: median survival time, dose: 0.05 mg/kg/injection, schedule: Q#A X Z (sc), vehicle: other) of the same molecule?
**A.** 105 % of control

**Q.** And the T/C (endpoint: median survival time, dose: 0.14 mg/kg/injection, schedule: Q#A X Z (sc), vehicle: other)?
**A.** 122 % of control

**Q.** What about the T/C (endpoint: median survival time, dose: 0.17 mg/kg/injection, schedule: Q01DX Z (iv), vehicle: other) of the same molecule?
**A.** 112 % of control

**Q.** And the T/C (endpoint: median survival time, dose: 0.23 mg/kg/injection, schedule: Q01DX Z (ip), vehicle: other)?
**A.** 100 % of control

**Q.** And the T/C (endpoint: median survival time, dose: 0.23 mg/kg/injection, schedule: Q01DX Z (sc), vehicle: sodium bicarbonate)?
**A.** 109 % of control

**Q.** What about the T/C (endpoint: median survival time, dose: 0.24 mg/kg/injection, schedule: Q01DX Z (sc), vehicle: other) of the same molecule?
**A.** 104 % of control and 108 % of control

**Q.** What about the T/C (endpoint: median survival time, dose: 0.3 mg/kg/injection, schedule: Q01DX Z (sc), vehicle: other) of the same molecule?
**A.** 112 % of control

**Q.** What about the T/C (endpoint: median survival time, dose: 0.39 mg/kg/injection, schedule: Q01DX006 (sc), vehicle: other) of the same molecule?
**A.** 110 % of control

**Q.** And the T/C (endpoint: median survival time, dose: 0.39 mg/kg/injection, schedule: Q01DX008 (sc), vehicle: other)?
**A.** 110 % of control

**Q.** And the T/C (endpoint: median survival time, dose: 0.39 mg/kg/injection, schedule: Q01DX009 (sc), vehicle: other)?
**A.** 122 % of control

**Q.** And the T/C (endpoint: median survival time, dose: 0.39 mg/kg/injection, schedule: Q01DX Z (ip), vehicle: other)?
**A.** 105 % of control

**Q.** What about the T/C (endpoint: median survival time, dose: 0.47 mg/kg/injection, schedule: Q01DX Z (iv), vehicle: other) of the same molecule?
**A.** 112 % of control

**Q.** And the T/C (endpoint: median survival time, dose: 0.47 mg/kg/injection, schedule: Q01DX Z (oral), vehicle: other)?
**A.** 112 % of control

**Q.** And the T/C (endpoint: median survival time, dose: 0.65 mg/kg/injection, schedule: Q01DX008 (sc), vehicle: other)?
**A.** 155 % of control and 166 % of control

**Q.** And the T/C (endpoint: median survival time, dose: 0.65 mg/kg/injection, schedule: Q01DX009 (sc), vehicle: other)?
**A.** 169 % of control

**Q.** What about the T/C (endpoint: median survival time, dose: 0.65 mg/kg/injection, schedule: Q01DX017 (sc), vehicle: sodium bicarbonate) of the same molecule?
**A.** 166 % of control

**Q.** What about the T/C (endpoint: median survival time, dose: 0.65 mg/kg/injection, schedule: Q01DX Z (oral), vehicle: other) of the same molecule?
**A.** 90 % of control

**Q.** What about the T/C (endpoint: median survival time, dose: 0.65 mg/kg/injection, schedule: Q02DX009 (sc), vehicle: other) of the same molecule?
**A.** 111 % of control

**Q.** And the T/C (endpoint: median survival time, dose: 0.65 mg/kg/injection, schedule: Q02DX Z (sc), vehicle: other)?
**A.** 111 % of control

**Q.** And the T/C (endpoint: median survival time, dose: 1.08 mg/kg/injection, schedule: Q01DX006 (sc), vehicle: other)?
**A.** 150 % of control

**Q.** And the T/C (endpoint: median survival time, dose: 1.08 mg/kg/injection, schedule: Q01DX008 (sc), vehicle: other)?
**A.** 160 % of control and 166 % of control

**Q.** And the T/C (endpoint: median survival time, dose: 1.08 mg/kg/injection, schedule: Q01DX009 (ip), vehicle: sodium bicarbonate)?
**A.** 156 % of control and 166 % of control and 168 % of control

**Q.** What about the T/C (endpoint: median survival time, dose: 1.08 mg/kg/injection, schedule: Q01DX017 (sc), vehicle: sodium bicarbonate) of the same molecule?
**A.** 158 % of control

**Q.** What about the T/C (endpoint: median survival time, dose: 1.08 mg/kg/injection, schedule: Q01DX Z (ip), vehicle: other) of the same molecule?
**A.** 160 % of control

**Q.** And the T/C (endpoint: median survival time, dose: 1.08 mg/kg/injection, schedule: Q01DX Z (oral), vehicle: other)?
**A.** 110 % of control

**Q.** And the T/C (endpoint: median survival time, dose: 1.08 mg/kg/injection, schedule: Q02DX009 (sc), vehicle: other)?
**A.** 119 % of control

**Q.** And the T/C (endpoint: median survival time, dose: 1.08 mg/kg/injection, schedule: Q02DX Z (sc), vehicle: other)?
**A.** 122 % of control

**Q.** What about the T/C (endpoint: median survival time, dose: 1.08 mg/kg/injection, schedule: Q#A X Z (sc), vehicle: other) of the same molecule?
**A.** 166 % of control

**Q.** What about the T/C (endpoint: median survival time, dose: 1.5 mg/kg/injection, schedule: Q01DX009 (ip), vehicle: sodium bicarbonate) of the same molecule?
**A.** 155 % of control and 167 % of control

**Q.** What about the T/C (endpoint: median survival time, dose: 1.8 mg/kg/injection, schedule: Q01DX006 (sc), vehicle: other) of the same molecule?
**A.** 155 % of control

**Q.** And the T/C (endpoint: median survival time, dose: 1.8 mg/kg/injection, schedule: Q01DX008 (sc), vehicle: other)?
**A.** 160 % of control

**Q.** What about the T/C (endpoint: median survival time, dose: 1.8 mg/kg/injection, schedule: Q01DX009 (ip), vehicle: sodium bicarbonate) of the same molecule?
**A.** 166 % of control and 171 % of control

**Q.** And the T/C (endpoint: median survival time, dose: 2.89 mg/kg/injection, schedule: Q01DX Z (ip), vehicle: other)?
**A.** 155 % of control

**Q.** And the T/C (endpoint: median survival time, dose: 3.0 mg/kg/injection, schedule: Q01DX006 (sc), vehicle: other)?
**A.** 160 % of control and 166 % of control

**Q.** What about the T/C (endpoint: median survival time, dose: 3.0 mg/kg/injection, schedule: Q01DX008 (sc), vehicle: other) of the same molecule?
**A.** 160 % of control

**Q.** What about the T/C (endpoint: median survival time, dose: 3.0 mg/kg/injection, schedule: Q01DX010 (sc), vehicle: other) of the same molecule?
**A.** 161 % of control

**Q.** And the T/C (endpoint: median survival time, dose: 3.0 mg/kg/injection, schedule: Q01DX012 (ip), vehicle: sodium bicarbonate)?
**A.** 122 % of control

**Q.** And the T/C (endpoint: median survival time, dose: 3.0 mg/kg/injection, schedule: Q01DX Z (oral), vehicle: other)?
**A.** 160 % of control

**Q.** And the T/C (endpoint: median survival time, dose: 3.0 mg/kg/injection, schedule: Q02DX009 (sc), vehicle: other)?
**A.** 164 % of control

**Q.** What about the T/C (endpoint: median survival time, dose: 3.0 mg/kg/injection, schedule: Q02DX Z (sc), vehicle: other) of the same molecule?
**A.** 166 % of control

**Q.** What about the T/C (endpoint: median survival time, dose: 3.02 mg/kg/injection, schedule: Q01DX Z (sc), vehicle: other) of the same molecule?
**A.** 166 % of control

**Q.** What about the T/C (endpoint: median survival time, dose: 3.64 mg/kg/injection, schedule: Q01DX Z (sc), vehicle: other) of the same molecule?
**A.** 166 % of control

**Q.** And the T/C (endpoint: median survival time, dose: 3.9 mg/kg/injection, schedule: Q01DX Z (sc), vehicle: other)?
**A.** 150 % of control

**Q.** What about the T/C (endpoint: median survival time, dose: 4.0 mg/kg/injection, schedule: Q01DX Z (sc), vehicle: water) of the same molecule?
**A.** 155 % of control

**Q.** And the T/C (endpoint: median survival time, dose: 4.7 mg/kg/injection, schedule: Q01DX Z (sc), vehicle: other)?
**A.** 166 % of control

**Q.** What about the T/C (endpoint: median survival time, dose: 5.0 mg/kg/injection, schedule: Q01DX009 (ip), vehicle: sodium bicarbonate) of the same molecule?
**A.** 166 % of control and 171 % of control

**Q.** And the T/C (endpoint: median survival time, dose: 5.0 mg/kg/injection, schedule: Q01DX025 (sc), vehicle: other)?
**A.** 168 % of control

**Q.** What about the T/C (endpoint: median survival time, dose: 5.0 mg/kg/injection, schedule: Q01DX Z (sc), vehicle: sodium bicarbonate) of the same molecule?
**A.** 100 % of control

**Q.** And the T/C (endpoint: median survival time, dose: 6.0 mg/kg/injection, schedule: Q01DX009 (ip), vehicle: sodium bicarbonate)?
**A.** 119 % of control

**Q.** What about the T/C (endpoint: median survival time, dose: 6.0 mg/kg/injection, schedule: Q01DX Z (oral), vehicle: other) of the same molecule?
**A.** 156 % of control

**Q.** And the T/C (endpoint: median survival time, dose: 14.0 mg/kg/injection, schedule: Q## X Z (sc), vehicle: other)?
**A.** 109 % of control and 113 % of control

**Q.** And the T/C (endpoint: median survival time, dose: 62.5 mg/kg/injection, schedule: Q01DX001 (sc), vehicle: other)?
**A.** 111 % of control

**Q.** And the T/C (endpoint: median survival time, dose: 65.0 mg/kg/injection, schedule: Q04DX005 (sc), vehicle: sodium bicarbonate)?
**A.** 108 % of control

**Q.** And the T/C (endpoint: median survival time, dose: 65.0 mg/kg/injection, schedule: Q## X Z (sc), vehicle: other)?
**A.** 152 % of control

**Q.** What about the T/C (endpoint: median survival time, dose: 100.0 mg/kg/injection, schedule: Q01DX001 (sc), vehicle: sodium bicarbonate) of the same molecule?
**A.** 150 % of control

**Q.** What about the T/C (endpoint: median survival time, dose: 108.0 mg/kg/injection, schedule: Q## X Z (sc), vehicle: other) of the same molecule?
**A.** 117 % of control

**Q.** And the T/C (endpoint: median survival time, dose: 125.0 mg/kg/injection, schedule: Q01DX001 (sc), vehicle: other)?
**A.** 116 % of control
